The values below come from patent US20170296456A1, “PRODUCTS AND METHODS FOR TREATING PERIORBITAL DYSCHROMIA” (The Procter & Gamble Company, priority 2016, published 2017).

For this experiment, the system named is B16-F1 mouse melanoma cell line. The experiment is described as follows: B16 melanin synthesis inhibition assay. Particulars: B16-F1 cells, OD 410 nm. The format is cell-based. The protocol: In this example, a commercially available B16-F1 mouse melanoma cell line from American Tissue Culture Collection, Virginia, USA was employed in a conventional melanin synthesis inhibition assay. The cell culture medium used in the assay is 500 mL of Dulbecco's Modified Eagle's Medium (DMEM), 50 mL Fetal Bovine Serum (FBS), and 5 mL of penicillin-streptomycin liquid. B16-F1 cells that are cultured in this medium and grown to greater than 90% confluency will synthesize melanin. While not intending to be bound by any theory, it is hypothesized that the melanin synthesis is stimulated by the culture medium and/or stress induced by growth to a high confluency. […] Equipment used in the assay include a CO2 incubator, such as a Forma Series Model 3110 by Therma Scientific, Massachusetts, USA; a hemocytometer, such as a Bright Line model by Hauser Scientific, Pennsylvania, USA; and a UV-Visible Spectrum Plate Reader, such as a SpectraMax250 from Molecular Devices, California, USA. […] Day 3: The cells from the T-150 flask are trypsinized, and the concentration of cells is determined using the hemacytometer. […] Read the 96 well plate using the UV-Vis Plate Reader at 410 nm to optically measure the amount of melanin produced between wells that are treated with the fava bean extract and control wells that are not. […] The concentration of test agent needed to provide the IC 50 is recorded. […]

Consider `Oc1ccc(OC2CCCCO2)cc1` (centres unmarked) [Deoxyarbutin], for which the “Concentration Needed for IC 50” value came to 0.008 v/v. Turning to `O=c1cc(CO)occ1O` [Kojic Acid], the “Concentration Needed for IC 50” value is 0.01 v/v.
